Values of other authors in the CATMoS acute toxicity set (Mansouri et al. 2021).
Several values for one entry are separate records, joined by “and”; a condition that tells them apart may be missing. Identical values can stand only once.

Assay: rat acute oral toxicity
Conditions: in vivo

SMILES	LD50
CC1(COCCOCC2(C)CO2)CO1 (centres undefined)	7460 mg/kg
CC(=O)CCc1ccc(OC(C)=O)cc1	3040 mg/kg
O=[N+]([O-])c1cccc(C(F)(F)F)c1	610 mg/kg
CC(N)=S	301 mg/kg
CCCCS	1500 mg/kg
Oc1ccccc1S	178 mg/kg
O=C(Nc1cccc(Cl)c1)OCC#CCOC(=O)Nc1cccc(Cl)c1	2040 mg/kg
O=C(O)C1CCc2cc(C3CCCCC3)ccc21 (centres undefined)	287 mg/kg and 230 mg/kg
C[N+](C)(C)CCC[N+]1(C)CC2C3C=CC(CC3)C2C1 (centres undefined)	1730 mg/kg
CCN(CC)C(C)C(=O)c1ccc(NS(C)(=O)=O)cc1 (centres undefined)	2350 mg/kg
CCCOC(=O)CC(SP(=O)(OC)OC)C(=O)OCCC (centres undefined)	360 mg/kg
CCCCC[C@H](O)/C=C/[C@H]1[C@H](O)CC(=O)[C@@H]1CCCCCCC(=O)O	228 mg/kg
CC(=O)ON(C(=O)OC(C)C)c1ccccc1	3400 mg/kg
CC(CO)Oc1ccccc1 (centres undefined)	2830 mg/kg
CC(C=O)Cc1ccc(C(C)(C)C)cc1 (centres undefined)	1390 mg/kg
CC(=O)c1ccccn1	2280 mg/kg
CC(C)=CCC(CCN1CCOCC1)(C(N)=O)c1cccc2ccccc12 (centres undefined)	177 mg/kg
ClC(Cl)(Cl)CC1CO1 (centres undefined)	1500 mg/kg
CC(C)(C)/N=C(\NC#N)Nc1cccnc1	278 mg/kg
CCN(CCCCOC(=O)c1ccc(OC)c(OC)c1)C1CCc2cc(OC)c(OC)cc2C1 (centres undefined)	1540 mg/kg
ClC1=C(Cl)C2(Cl)C(Cl)=C(Cl)C3C1C(Cl)CC32 (centres undefined)	10200 mg/kg
CC(C)(N)CCCCCCCCCCOCCO	1850 mg/kg
COC(=O)c1cccc(C(=O)OC)c1	4390 mg/kg

SMILES	LD50
Cc1ccc(C(=O)C(C)CN2CCCCC2)cc1 (centres undefined)	1450 mg/kg
c1ccc2c(c1)Sc1ccccc1N2CCCN1CCOCC1	1000 mg/kg
C=C(C)C(=O)OCCOC(=O)C(=C)C	3300 mg/kg
CCCCCCCCCCCCc1ccc(C)c(C[N+](C)(C)C)c1	389 mg/kg
OCCN(CCO)C1CCCCC1	2600 mg/kg
CCOC(=S)SSSC(=S)OCC	235 mg/kg
C=C1/C(=C\C=C2/CCC[C@]3(C)[C@@H]([C@H](C)/C=C/[C@H](C)C(C)C)CC[C@@H]23)C[C@@H](O)C[C@@H]1O	3.5 mg/kg
CCn1c(=O)c2ccccc2n(-c2cccc(C(F)(F)F)c2)c1=O	1500 mg/kg
FC1(F)C(Cl)=C(Cl)C(F)(F)C1(F)F	280 mg/kg
ClCCOCCCl	75 mg/kg
O=S1OCC2C(CO1)C1(Cl)C(Cl)=C(Cl)C2(Cl)C1(Cl)Cl (centres undefined)	240 mg/kg
CC1CN1 (centres undefined)	19 mg/kg
Nc1ccccc1SCc1ncon1	79.4 mg/kg and 63 mg/kg
Cc1nc2cnc3ccccc3c2s1	900 mg/kg and 950 mg/kg
CN(C)CCCSc1ccccc1NC(=O)C=Cc1ccccc1	1500 mg/kg
CN=C(O)O/N=C1/SC(C)OC1C (centres undefined)	4.5 mg/kg
COc1ccc(-c2noc(CC(=O)O)c2-c2ccc(OC)cc2)cc1	887 mg/kg
Nc1ncnc2c1ncn2[C@@H]1O[C@H](COP(=O)(O)O)[C@@H](O)[C@H]1O	11200 mg/kg
COc1ccc(Oc2ccc(NC(=O)N(C)C)cc2)cc1	1000 mg/kg
Nc1ncnc2nccnc12	745 mg/kg
CC(C)(C)CON=CC1C(C(=O)OC(C#N)c2cccc(Oc3ccccc3)c2)C1(C)C (centres undefined)	143 mg/kg
C1CNCCN1	4900 mg/kg
C=C[Si](OCCOC)(OCCOC)OCCOC	2960 mg/kg

SMILES	LD50
CC(C)(C)C(=O)COc1ccc(Cl)cc1	4650 mg/kg
COc1cc(C(=O)N2CCN(C(=O)c3cc(OC)c(OC)c(OC)c3)CC2)cc(OC)c1OC	1000 mg/kg
Cc1c(C)c2c(c(C)c1O)CCC(C)(C(=O)O)O2 (centres undefined)	4300 mg/kg
CC(O)c1cc(N)cc(C(F)(F)F)c1 (centres undefined)	880 mg/kg
NCCOCCN	961 mg/kg
CSC	3300 mg/kg
CCCCC(C#N)(Cn1ccnc1)c1ccccc1 (centres undefined)	1590 mg/kg
C=CC(O)C#N (centres undefined)	65 mg/kg
NN1C(=O)CC(c2cccc(Br)c2)C1=O (centres undefined)	1600 mg/kg
CCCC[P+](CCCC)(CCCC)CCCC	916 mg/kg and 420 mg/kg
CCN(CC)Cc1cc(-c2ccccc2)ccc1O	28 mg/kg
CN(C)C=CC#N	946 mg/kg
CC(Cl)CO (centres undefined)	218 mg/kg
Clc1ccccc1C(c1ccccc1)(c1ccccc1)n1ccnc1	708 mg/kg
Cc1cc(C=Cc2ccc3cc(N(C)C)ccc3[n+]2C)c(C)n1-c1ccccc1	161 mg/kg
Cc1ccc(C)c([N+](=O)[O-])c1	2440 mg/kg
CCCCCCCCCCCC(=O)OC1=C(c2c(C)cc(C)cc2C)C(=O)c2ccccc21	9500 mg/kg
CC(C)OC(Cl)=C(Cl)C(Cl)=C(Cl)Cl	1210 mg/kg
Cc1cccnc1N	100 mg/kg
O=[N+]([O-])c1cccc2[nH]c(C(F)(F)F)nc12	10.6 mg/kg
CCOP(=S)(OCC)SCCS(=O)(=O)CC	7.5 mg/kg
c1ccc2c(c1)CCCC2C1=NCCN1 (centres undefined)	785 mg/kg
CCN(CC)CCN(C)n1cc(-c2ccccc2)c2ccccc21	650 mg/kg
